# Measurements reported in US9867798B2, “Ladostigil therapy for immunomodulation” (priority 2012, dated 2018).
# Where “and” joins values, the source holds several entries; their conditions need not be identical. Identical values can stand only once.
# Experiments:
# ChE [1] = experiment: Cholinesterase inhibition in plasma and spleen of LPS injected mice (Example 5); type: in vivo, Balb-C mice; settings: 120 min after oral administration; for Inhibition of ChE, plasma / Inhibition of ChE, spleen: LPS injected mice
# Method: In experiments on the effect of chronic treatment with ladostigil on ChE activity in mice drinking DSS, the spleen was rapidly removed as described above, together with a colon segment of about 0.5 cm in length taken from the proximal area. Spleen and colon segments were washed in cold phosphate buffered saline (PBS) before they were frozen at −80° C. For assay, the tissue was unfrozen and weighed and PBS was added to each tissue at a ratio of 1 mg tissue to 1 ml. Tissues were homogenized at a speed of 24,000 rpm in cold phosphate buffer pH 7 containing 0.1% Triton and centrifuged at 14000 rpm. Aliquots of plasma and the supernatant from the spleen and colon were incubated with acetylthiocholine and dinitro benzoic acid in phosphate buffer pH 7 and the rate of development of the yellow color was measured as described by Ellman et al, (1961). Percent inhibition of ChE activity was calculated by comparison with that of control mice given water by gavage. Protein concentration was determined by means of by Pierce BCA Protein Assay Kit (Thermo Scientific, USA) according to the manufacturer's instructions. It is noted, that ChE activity in the colon and spleen of mice is attributed mainly to that of AChE while that in mouse plasma is mainly attributable to BuChE.
# For the LPS experiment involving a single administration, ladostigil (10 or 20 mg/kg) in a volume of 1 ml/100 g or water (1 ml/100 g) were given by gavage to groups of 6-8 Balb-C male mice weighing 24-30 g and LPS as described above. […] Blood was taken into heparinized tubes and centrifuged at 14000 rpm at room temperature for 4 min to provide plasma and the spleen was rapidly removed, weighed, frozen in liquid nitrogen and stored at −80° C. until assayed. It is noted, that ChE inhibition in mouse plasma is mainly attributed to BuChE activity, and in mouse spleen—mainly to AChE activity.
# Percent inhibition of ChE activity was calculated by comparison with that of control mice given water by gavage as described in Example 1 above.
# AChE = settings: 51 and 70.1 mg/kg/day, doses effective in ameliorating EAE; cited from earlier work
# ChE [2] = experiment: Cholinesterase activity in spleen and plasma of mice (Example 4); type: in vivo, Balb-C mice; settings: 10 mg/kg oral, two hours, ± SD, not significant
# Method: Ladostigil 10 mg/kg or saline 1 mg/kg were given by gavage to groups of 6 Balb-C male mice weighing 24-30 gm. The mice were sacrificed 120 min later when ChE inhibition reaches its peak. The spleen was rapidly removed and weighed and blood was centrifuged at 14000 rpm at room temperature for 4 min to provide plasma. Phosphate buffer was added to the spleen at a ratio of 1 mg/ml and the tissue was homogenized at a speed of 24,000 rpm in cold phosphate buffer pH=7 containing 0.1% Triton and centrifuged at 14000 rpm. Aliquots of plasma and the supernatant from the spleen were incubated with acetylthiocholine and dinitro benzoic acid in phosphate buffer pH 7 and the rate of development of the yellow color was measured as described by Ellman et al, (1961). Percent inhibition of ChE activity was calculated by comparison with that of control mice given with saline. Protein concentration was determined by means of Bradford reagent (Bio-RAD, 500-0006) and results represented as activity/mg protein.
# [3] = tested on: Psammomys obesus gerbils on high-energy diet; experiment: Diabetes in gerbils on high-energy diet: glucose, insulin, pancreatic islets; type: in vivo; set-up: Change in glucose: unit: mg/dL
# Method: (§1) Male Psammomys obesus gerbils aged 3.5-4 months were given a high-energy diet consisting of 938.5 g/Kg version of 2018SC+F Harlan Tekled Ltd., USA, supplemented with soybean oil to a final fat concentration of 6%. After one week on the diet, blood was taken for measurement of glucose and ChE activity. Half of the animals were given ladostigil (17 mg/kg/day) by gavage while the remainder received tap water by the same route. Blood was taken from the tail once weekly for measurement of glucose as described in Kalman R., et al, (2001). Lab Anim. 35:346-352. After three weeks of treatment the animals they were deeply anesthetized, blood was taken by cardiac puncture for measurement of ChE activity, glucose and insulin levels and the pancreas removed for section and staining with haematoxylin and eosin and the number of islets counted. Blood glucose of 11 animals had reached values exceeding 200 mg/dL after one week on the high energy diet and the average value for the whole group was 300±27 mg/dL. […] It is noted, that cholinesterase activity in plasma of Psammomys obesus is mostly mediated by butyrylcholinesterase (BuChE) rather than by AChE.
# [4] = tested on: cholinesterase (mostly BuChE); experiment: ChE inhibition in gerbil plasma (Ellman); type: in vivo, Psammomys obesus; settings: 17 mg/kg/day, three hours after the last gavage, vs same gerbil before treatment
# Method: as §1
# [5] = tested on: LPS-induced TNF-α, IL-1β and IL-6 in spleen; experiment: Cytokines in spleen of mice injected with LPS (Example 4); type: in vivo, Balb/c mice
# Method: Male Balb/c mice (aged 6-7 weeks, weighing 25-30 gm) were given ladostigil 10 mg/kg by gavage or 1 ml/kg saline followed 15 min later by an intra-peritoneal (i.p.) injection of LPS (10 mg/kg). For measurement of cytokine levels in the spleen and blood the mice were sacrificed 4 h after drug administration, blood collected in heparinized tubes and centrifuged to obtain plasma and the spleen was rapidly removed and weighed. Plasma and spleen were frozen in liquid nitrogen and stored at −80° C. until use.
# For measurement of cytokine levels the tissue was diluted in PBS containing 0.8% NaCl, 0.144% NaHPO4, 0.024% KH2PO4 and protease inhibitor cocktail (Sigma Israel, P8340) and homogenized in an Ultra-TURRAX® homogenizer at a speed of 24,000 rpm, centrifuged at 14000 g for 15 min at 4° C. Cytokines were detected in the supernatant by using ELISA kits for cytokines IL-1β, IL-6, and TNF-α(Biolegend) following the manufacturer's protocol. Each experiment was performed 4 times with 6 replicate measures in each experiment. Protein concentration in each sample was determined with Bradford reagent (Bio-RAD, 500-0006).
# [6] = 10 mg/kg by gavage + LPS 10 mg/kg i.p., four hours
smiles,measurement,setting,value
"C#CCN[C@@H]1CCc2ccc(OC(=O)N(C)CC)cc21 [Ladostigil, R(+)-6-(N-methyl, N-ethyl-carbamoyloxy)-N′-propargyl-1-aminoindan]",Inhibition of ChE activity in plasma or spleen,ChE [1]; ladostigil 10 mg/kg,did not significantly inhibit ChE activity
same,"Inhibition of ChE, plasma",ChE [1]; ladostigil 10 mg/kg,7.8 ± 2.4%
same,"Inhibition of ChE, spleen",ChE [1]; ladostigil 10 mg/kg,15.1 ± 3.6%
same,"Inhibition of ChE, plasma",ChE [1]; ladostigil 20 mg/kg,27.4±5.9%
same,"Inhibition of ChE, spleen",ChE [1]; ladostigil 20 mg/kg,28.1 ± 1.9 %
same,Inhibition of AChE in blood,AChE,60-65%
same,Inhibition of AChE in brain,AChE,47-52%
same,Inhibition of ChE in plasma,ChE [2],5.7±2.1%
same,Inhibition of ChE in spleen,ChE [2],7.8±6.4%
same,Blood glucose levels,"[3]; 17 mg/kg/day, three weeks",decrease in blood glucose levels in all six animals
same,Insulin after 3 weeks of treatment,"[3]; individual gerbils, 17 mg/kg/day",132 mU/L and 126.6 mU/L and 124.6 mU/L and 85.3 mU/L and 172 mU/L and 135.3 mU/L
same,Glucose after 3 weeks of treatment,"[3]; individual gerbils, 17 mg/kg/day by gavage, 17 mg/kg/day",284 mg/dL and 250 mg/dL and 180 mg/dL and 311 mg/dL and 222 mg/dL and 266 mg/dL
same,Change in glucose,"[3]; individual gerbils, 17 mg/kg/day, after 3 weeks vs before, 17 mg/kg/day",−136 and −23 and −20 and −41 and −65 and −19
same,No of islets,"[3]; individual gerbils, 17 mg/kg/day, after 3 weeks, 17 mg/kg/day",42 and 117 and 79 (2×) and 99 and 87
same,Glucose before treatment,"[3]; individual gerbils, baseline after one week of high energy diet, group later given 17 mg/kg, 17 mg/kg",420 mg/dL and 273 mg/dL and 200 mg/dL and 352 mg/dL and 287 mg/dL and 285 mg/dL
same,ChE inhibition in plasma,[4],50±3%
same,Reduction of IL-1β levels in spleen,"[5]; 10 mg/kg + LPS, Example 4",28.1%
same,Reduction of IL-6 levels in spleen,"[5]; 10 mg/kg + LPS, Example 4",46.7%
same,Reduction of TNF-α levels in spleen,"[5]; 10 mg/kg + LPS, Example 4",49.6%
same,IL-1β in spleen,[5]; [6],1.37 ± 0.04 ng/mg protein
same,IL-6 in spleen,[5]; [6],179 ± 20 pg/mg protein
same,TNF-α in spleen,[5]; [6],8.3 ± 0.9 pg/mg protein
same,Reduction of elevation of pro-inflammatory cytokines in the spleen,"[5]; oral dose prior to LPS, Example 4 conclusion",28-50%
